The source of these data is ChEMBL document CHEMBL1770072, “Antiplasmodial and antitumor activity of dihydroartemisinin analogs derived via the aza-Michael addition reaction” (Bioorg Med Chem Lett, 2011).

Structures are written as SMILES. pIC50: −log10 of the molar value.

Assay [1] has as its system Plasmodium falciparum. In words: Resistance index, ratio of IC50 for chloroquine-resistant Plasmodium falciparum Dd2 to IC50 for chloroquine-sensitive Plasmodium falciparum D10. In kind it is functional.
In assay [2] the test system is Plasmodium falciparum. In words: Antiplasmodial activity against chloroquine-resistant Plasmodium falciparum Dd2. In kind it is functional, organism-based.
Assay [3] deals with Plasmodium falciparum. Put plainly: Antiplasmodial activity against chloroquine-sensitive Plasmodium falciparum D10. In kind it is functional, organism-based.
The subject of assay [4] is HeLa. Put plainly: Cytotoxicity against human HeLa cells after 7 days by MTT assay. In kind it is functional, cell-based. The following applies: 168 h. For orientation: Tetrazolium assays rely on reduction of a dye to a coloured formazan, in cell work by metabolically active cells.
A short description of assay [5]: Cytotoxicity against human resting lymphocytes after 3 days by MTT assay. In kind it is cell-based. The following applies: Lymphocyte, 72 h.
Assay [6] is described as follows: Cytotoxicity against phytohaemagglutinin-stimulated human lymphocytes after 3 days by MTT assay. In kind it is cell-based. The following applies: Lymphocyte, 72 h.
Assay [7] relates to HeLa. In words: Tumor specificity, ratio of IC50 for human resting and phytohaemagglutinin-stimulated lymphocytes to IC50 for human HeLa cells.

Usually pIC50 stands for −log10 of the IC50, conventionally taken in molar units. Take `C[C@H]1[C@@H](O)O[C@@H]2O[C@@]3(C)CC[C@H]4[C@H](C)CC[C@@H]1[C@@]24OO3` [ARTENIMOL]: the “Ratio IC50” value in the assay with Plasmodium falciparum [1] worked out at 0.75. Further, the pIC50 in the assay with Plasmodium falciparum [2] is 8.52; with Plasmodium falciparum [3] it was 8.39.

With `C=CC(=O)O[C@H]1O[C@@H]2O[C@@]3(C)CC[C@H]4[C@H](C)CC[C@@H]([C@H]1C)[C@@]24OO3`, the pIC50 with HeLa [4] is 5.54; in assay [5], 4.52; in assay [6], 5.04; in the assay with Plasmodium falciparum [2], 7.91; in the assay on Plasmodium falciparum [3], 8.12. For the same compound, the “Ratio IC50” value in the assay on Plasmodium falciparum [1] came to 1.6; with HeLa [7] it was 6.9.

As for `C[C@H]1[C@@H](OC(=O)CCNCCCCNc2ccnc3cc(Cl)ccc23)O[C@@H]2O[C@@]3(C)CC[C@H]4[C@H](C)CC[C@@H]1[C@@]24OO3`, the pIC50 in the assay on HeLa [4] was 4.99; in assay [5] it was 4.49; in assay [6], 5.05; in the assay on Plasmodium falciparum [2], 7.56; in the assay on Plasmodium falciparum [3], 7.62. Further, the figures for the “Ratio IC50” value in the assay with Plasmodium falciparum [1] and with HeLa [7] were 1.1 and 2, respectively.

With `NCCCNc1ccnc2cc(Cl)ccc12`, the pIC50 in the assay with HeLa [4] was 5.01; with Plasmodium falciparum [2] it was 5.90; with Plasmodium falciparum [3], 6.62. The “Ratio IC50” value with Plasmodium falciparum [1] turned out to be 5.2.

Take `C[C@H]1[C@@H](OC(=O)CCNCCCNc2ccnc3cc(Cl)ccc23)O[C@@H]2O[C@@]3(C)CC[C@H]4[C@H](C)CC[C@@H]1[C@@]24OO3`: the pIC50 in the assay on HeLa [4] was 5.25; in assay [5], 4.67; in assay [6], 5.33; in the assay on Plasmodium falciparum [2] it was 7.61; with Plasmodium falciparum [3], 7.73. Moreover, the entries for the “Ratio IC50” value in the assay on Plasmodium falciparum [1] and with HeLa [7] were 1.3 and 2.4, respectively.

Regarding `C[C@@H]1CC[C@H]2[C@@H](C)C(=O)O[C@@H]3O[C@@]4(C)CC[C@@H]1[C@]32OO4` [ARTEMISININ], the “Ratio IC50” value in the assay on Plasmodium falciparum [1] came to 1.

As to `Clc1ccc2c(N3CCNCC3)ccnc2c1`, the pIC50 is 4.56 in the assay with HeLa [4], 5.79 in the assay with Plasmodium falciparum [2] and 5.83 in the assay with Plasmodium falciparum [3]. The “Ratio IC50” value in the assay on Plasmodium falciparum [1] came out at 1.1.

Take `C[C@H]1[C@H](OC(=O)CCN2CCN(C)CC2)O[C@@H]2O[C@@]3(C)CC[C@H]4[C@H](C)CC[C@@H]1[C@@]24OO3`: the negative logarithm of the IC50 (pIC50) is 5.18 in the assay with HeLa [4]; under 4.30 in assay [5]; 4.57 in assay [6]; 7.90 in the assay with Plasmodium falciparum [2]; 8.15 with Plasmodium falciparum [3]. In addition, the “Ratio IC50” value in the assay with Plasmodium falciparum [1] came to 1.8; in the assay on HeLa [7] it was 4.1.

Turning to `C[C@H]1[C@@H](OC(=O)CCNCCCCCCNc2ccnc3cc(Cl)ccc23)O[C@@H]2O[C@@]3(C)CC[C@H]4[C@H](C)CC[C@@H]1[C@@]24OO3`, the pIC50 was 6.43 with HeLa [4]; 4.72 in assay [5]; 5.47 in assay [6]; 7.27 in the assay on Plasmodium falciparum [2]; 7.25 in the assay on Plasmodium falciparum [3]. The entries for the “Ratio IC50” value with Plasmodium falciparum [1] and in the assay with HeLa [7] were 0.9 and 30.7, respectively.

Regarding `C=CC(=O)O[C@@H]1O[C@@H]2O[C@@]3(C)CC[C@H]4[C@H](C)CC[C@@H]([C@H]1C)[C@@]24OO3`, the negative logarithm of the IC50 (pIC50) in the assay with HeLa [4] was 5.20; in assay [5], 4.40; in assay [6], 4.94; in the assay on Plasmodium falciparum [2] it was 8.03; with Plasmodium falciparum [3] it was 8.23. The “Ratio IC50” value with Plasmodium falciparum [1] is 1.6; with HeLa [7], 4.

With `C[C@H]1[C@@H](OC(=O)CCNCCNc2ccnc3cc(Cl)ccc23)O[C@@H]2O[C@@]3(C)CC[C@H]4[C@H](C)CC[C@@H]1[C@@]24OO3`, the negative logarithm of the IC50 (pIC50) is 5.02 with HeLa [4]; under 4.30 in assay [5]; 4.77 in assay [6]; 7.70 in the assay on Plasmodium falciparum [2]; 7.69 with Plasmodium falciparum [3]. The entries for the “Ratio IC50” value in the assay on Plasmodium falciparum [1] and in the assay with HeLa [7] were 1 and 1.8, respectively.

In the case of `NCCCCNc1ccnc2cc(Cl)ccc12`, the pIC50 is 4.95 with HeLa [4], 5.64 in the assay with Plasmodium falciparum [2] and 6.32 in the assay on Plasmodium falciparum [3]. The “Ratio IC50” value with Plasmodium falciparum [1] is on record as 4.7.

For `C[C@H]1[C@H](OC(=O)CCN(C)Cc2ccccc2)O[C@@H]2O[C@@]3(C)CC[C@H]4[C@H](C)CC[C@@H]1[C@@]24OO3`, the negative-log IC50 (pIC50) is 5.35 in the assay on HeLa [4]; under 4.30 in assay [5]; 4.60 in assay [6]; 8.21 in the assay with Plasmodium falciparum [2]; 8.28 with Plasmodium falciparum [3]. The figures for the “Ratio IC50” value with Plasmodium falciparum [1] and in the assay with HeLa [7] were 1.2 and 5.6, respectively.

For `C[C@H]1[C@H](OC(=O)CCN2CCN(c3ccccc3)CC2)O[C@@H]2O[C@@]3(C)CC[C@H]4[C@H](C)CC[C@@H]1[C@@]24OO3`, the negative-log IC50 (pIC50) is 5.24 with HeLa [4]; under 4.30 in assay [5]; 4.56 in assay [6]; 8.14 in the assay on Plasmodium falciparum [2]; 8.25 with Plasmodium falciparum [3]. The “Ratio IC50” value in the assay with Plasmodium falciparum [1] was 1.3; in the assay with HeLa [7], 4.8.

As for `C[C@H]1[C@H](OC(=O)CCN2CCCC2)O[C@@H]2O[C@@]3(C)CC[C@H]4[C@H](C)CC[C@@H]1[C@@]24OO3`, the “Ratio IC50” value in the assay with Plasmodium falciparum [1] is 1. Moreover, the pIC50 in the assay with Plasmodium falciparum [2] was 7.94; in the assay on Plasmodium falciparum [3], 7.95.

`CC(C)NCCC(=O)O[C@@H]1O[C@@H]2O[C@@]3(C)CC[C@H]4[C@H](C)CC[C@@H]([C@H]1C)[C@@]24OO3`: the pIC50 with HeLa [4] was 4.88; in the assay with Plasmodium falciparum [2], 7.73; in the assay with Plasmodium falciparum [3], 7.77. The “Ratio IC50” value in the assay on Plasmodium falciparum [1] is given as 1.1.

For the compound `NCCNc1ccnc2cc(Cl)ccc12`, the pIC50 is 5.14 in the assay on HeLa [4], 5.94 in the assay with Plasmodium falciparum [2] and 6.64 with Plasmodium falciparum [3]. Besides, the “Ratio IC50” value with Plasmodium falciparum [1] is recorded as 4.9.

Take `C[C@H]1[C@H](OC(=O)CCN2CCNCC2)O[C@@H]2O[C@@]3(C)CC[C@H]4[C@H](C)CC[C@@H]1[C@@]24OO3`: the pIC50 in the assay with HeLa [4] was 5.05; in assay [5] it was under 4.30; in assay [6], 4.51; in the assay on Plasmodium falciparum [2], 7.80; in the assay with Plasmodium falciparum [3], 8.04. The “Ratio IC50” value was 1.7 in the assay on Plasmodium falciparum [1] and 3.5 in the assay on HeLa [7].

For `CCN(CC)CCC(=O)O[C@@H]1O[C@@H]2O[C@@]3(C)CC[C@H]4[C@H](C)CC[C@@H]([C@H]1C)[C@@]24OO3`, the pIC50 is 5.22 in the assay with HeLa [4]; under 4.30 in assay [5]; 4.52 in assay [6]; 7.87 in the assay with Plasmodium falciparum [2]; 7.89 in the assay on Plasmodium falciparum [3]. Also, the “Ratio IC50” value in the assay with Plasmodium falciparum [1] stood at 1; in the assay with HeLa [7], 5.

For `NCCCCCCNc1ccnc2cc(Cl)ccc12`, the pIC50 in the assay on HeLa [4] is 4.80; in the assay with Plasmodium falciparum [2] it was 5.73; with Plasmodium falciparum [3] it was 5.66. Also, the “Ratio IC50” value in the assay with Plasmodium falciparum [1] is listed as 0.9.

Regarding `C[C@H]1[C@@H](OC(=O)CCN2CCN(c3ccnc4cc(Cl)ccc34)CC2)O[C@@H]2O[C@@]3(C)CC[C@H]4[C@H](C)CC[C@@H]1[C@@]24OO3`, the pIC50 with HeLa [4] was 5.18; in assay [5], 4.35; in assay [6] it was 4.85; with Plasmodium falciparum [2], 8.00; in the assay with Plasmodium falciparum [3], 8.00. In addition, the entries for the “Ratio IC50” value with Plasmodium falciparum [1] and with HeLa [7] were 1 and 4.5, respectively.

In the case of `C[C@H]1[C@H](OC(=O)CCN2CCOCC2)O[C@@H]2O[C@@]3(C)CC[C@H]4[C@H](C)CC[C@@H]1[C@@]24OO3`, the pIC50 in the assay with HeLa [4] was 5.32; in assay [5] it was under 4.30; in assay [6] it was 4.56; in the assay with Plasmodium falciparum [2] it was 8.04; with Plasmodium falciparum [3] it was 8.21. The “Ratio IC50” value is given as 1.4 with Plasmodium falciparum [1] and 5.7 with HeLa [7].
